These results are taken from ChEMBL document CHEMBL5728176, “Substituted pyrimidines for treating bacterial infections” (2020).

The assay can be described thus: nhibition Assay against Klebsiella pneumoniae LpxC: LpxC inhibition assays were performed using liquid chromatography with tandem mass spectrometry. Assays were performed, in duplicate, in opaque, 96-well microplates in a total assay volume of 50 μL. The incubation mixture contained: LpxC (0.2 nM Kpn), 0.8 μM UDP-3-O—[(R)-3-hydroxymyristoyl]-N-acetyl-glucosamine, 40 mM Bis-Tris/HCl buffer (pH 5.9), 5 mM sodium phosphate buffer (NaH2PO4/Na2HPO4, pH 7.0), 1 mM DTT, 0.1% (w/v) fatty-acid free BSA, 10% DMSO (v/v, with or without compound). The reactions were incubated at 22° C. for 60 minutes (with mild shaking), then terminated by the addition of 25 μL 0.25 N HCl. Samples were analyzed using a LC-MS system to measure native LpxC substrate and reaction product. IC50 analysis was done using GeneData Screener and a four parameter variable slope normalized to controls. Test compounds were prepared as 8-point dose-response curves (factor dilution 2) in triplicate, starting at 1 μM final concentration. Each assay plate included 6 wells used for the Z′ factor calculation, 3 as a positive control for the assay and 3 as a negative control. The robustness was calculated as the median Z′ factor for 5 plates. Chir-90, a well-known inhibitor of LpxC activity was used as inhibitor control standard.

One may read the IC50 as the concentration that inhibits the measured activity by half.

Structures are written as SMILES.

In the case of `C[C@@H](O)[C@H](NC(=O)c1ccc(C#Cc2ccc(CN3CCOCC3)cc2)cc1)C(=O)NO`, the IC50 is less than 1 nM.
